Measured values published in ChEMBL document CHEMBL1201862, “PubChem BioAssay data set” (2004).
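Interpolation was linear, between the two tested concentrations surrounding the appropriate level; five concentrations were tested over 48 hours in 96-well plates. Abbreviation: GI50, concentration required for 50% inhibition of growth.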 Active and inactive are the calls of the source. Rule as the data show it: active = GI50 up to about 1.1 µM and inactive = higher.

Experiments:
Assay in all cases: NCI anticancer screen, dose series, 48 h
[1] = system: NCI-H226
[2] = system: OVCAR-8
[3] = system: UO-31
[4] = system: RPMI-8226
[5] = system: K562
[6] = system: NCI-H23
[7] = system: SR
[8] = system: IGROV-1
[9] = system: MOLT-4
[10] = system: SN12C
[11] = system: 786-0
[12] = system: KM12
[13] = system: A549
[14] = system: A498
[15] = system: SK-MEL-2
[16] = system: MDA-N
[17] = system: MDA-MB-435
[18] = system: DU-145

Structure (SMILES) | GI50 [1] | GI50 [2] | GI50 [3] | GI50 [4] | GI50 [5] | GI50 [6] | GI50 [7] | GI50 [8] | GI50 [9] | GI50 [10] | GI50 [11] | GI50 [12] | GI50 [13] | GI50 [14] | GI50 [15] | GI50 [16] | GI50 [17] | GI50 [18]
Cc1cc(O)c2c(c1)OC1(C)CCC3C(C)(C)CCCC34COC2C14 (stereo unspecified) | 14 µM (inactive) | 16.7 µM (inactive) | 16.7 µM (inactive) | > 10 µM (inactive) | 20.8 µM (inactive) | 17.6 µM (inactive) | > 10 µM (inactive) | 19.7 µM (inactive) | 0.141 µM (active) | 16.7 µM (inactive) | 14.4 µM (inactive) | 16.8 µM (inactive) | 13.1 µM (inactive) | 13.2 µM (inactive) | – | – | – | –
C[C@]12CCCC(=O)C1C[C@H](C(=O)O)CC2 (stereo partly specified) | > 100 µM (inactive) | > 100 µM (inactive) | > 100 µM (inactive) | > 100 µM (inactive) | > 100 µM (inactive) | > 100 µM (inactive) | > 100 µM (inactive) | > 100 µM (inactive) | > 100 µM (inactive) | > 100 µM (inactive) | > 100 µM (inactive) | > 100 µM (inactive) | > 100 µM (inactive) | > 100 µM (inactive) | > 100 µM (inactive) | – | – | –
C=C/C(C)=C\CC1[C@](C)(O)CC[C@H]2C(C)(C)C(O)CC[C@]12C (stereo partly specified) | > 100 µM (inactive) | > 100 µM (inactive) | > 100 µM (inactive) | 42.6 µM (inactive) | 34.4 µM (inactive) | 55.8 µM (inactive) | 40.8 µM (inactive) | > 100 µM (inactive) | 33.8 µM (inactive) | > 100 µM (inactive) | > 100 µM (inactive) | > 100 µM (inactive) | > 100 µM (inactive) | > 100 µM (inactive) | > 100 µM (inactive) | > 100 µM (inactive) | > 100 µM (inactive) | > 100 µM (inactive)
CC1=C(C)C(=O)C2=C(OCCCO2)C1=O | > 10 µM (inactive) | 18.7 µM (inactive) | 16.5 µM (inactive) | 16.5 µM (inactive) | 21.6 µM (inactive) | > 10 µM (inactive) | 21.9 µM (inactive) | 18.2 µM (inactive) | 2.4 µM (inactive) | > 10 µM (inactive) | 19.2 µM (inactive) | > 10 µM (inactive) | 81.8 µM (inactive) | > 10 µM (inactive) | > 10 µM (inactive) | – | – | –
CCN(CC)c1ccc(NC(=S)NN(C)C)cc1 | > 10 µM (inactive) | > 10 µM (inactive) | > 10 µM (inactive) | > 10 µM (inactive) | > 10 µM (inactive) | > 10 µM (inactive) | > 10 µM (inactive) | > 10 µM (inactive) | > 10 µM (inactive) | > 10 µM (inactive) | > 10 µM (inactive) | > 10 µM (inactive) | > 10 µM (inactive) | > 10 µM (inactive) | > 10 µM (inactive) | > 10 µM (inactive) | > 10 µM (inactive) | > 10 µM (inactive)
N#C/C(c1nc2ccccc2[nH]1)=c1\s/c(=C/c2ccccc2)c(=O)n1-c1ccccc1 | > 100 µM (inactive) | > 100 µM (inactive) | > 100 µM (inactive) | > 100 µM (inactive) | > 100 µM (inactive) | > 100 µM (inactive) | > 100 µM (inactive) | 2.9 µM (inactive) | 9.89 µM (inactive) | > 100 µM (inactive) | > 100 µM (inactive) | > 100 µM (inactive) | > 100 µM (inactive) | 65.5 µM (inactive) | > 100 µM (inactive) | – | – | –
C/C(=N\O)c1ccc(OCc2cc(C(F)(F)F)cc(C(F)(F)F)c2)cc1 | 40.6 µM (inactive) | 41.9 µM (inactive) | > 100 µM (inactive) | – | 33 µM (inactive) | 95.3 µM (inactive) | 39.4 µM (inactive) | 75 µM (inactive) | 14.3 µM (inactive) | 46.2 µM (inactive) | 41.2 µM (inactive) | 19.3 µM (inactive) | 46.1 µM (inactive) | > 100 µM (inactive) | 57.1 µM (inactive) | 37.2 µM (inactive) | 43.8 µM (inactive) | > 100 µM (inactive)
COc1cc(Br)c(CC2=NCCc3cc(OC)c(OC)cc32)cc1OC | 11 µM (inactive) | 48.1 µM (inactive) | 11.3 µM (inactive) | 18.3 µM (inactive) | 5.4 µM (inactive) | 9.71 µM (inactive) | 6.78 µM (inactive) | 12.2 µM (inactive) | 15.8 µM (inactive) | 15.3 µM (inactive) | 16.7 µM (inactive) | 20.9 µM (inactive) | 21.1 µM (inactive) | 14.9 µM (inactive) | 53.1 µM (inactive) | – | – | –
O=[N+]([O-])c1ccc(OCCNc2cccc3ccccc23)cc1 | > 100 µM (inactive) | 65.3 µM (inactive) | 92.9 µM (inactive) | 24.7 µM (inactive) | 18.6 µM (inactive) | 30.6 µM (inactive) | – | > 100 µM (inactive) | 20.3 µM (inactive) | > 100 µM (inactive) | > 100 µM (inactive) | > 100 µM (inactive) | 60.1 µM (inactive) | > 100 µM (inactive) | > 100 µM (inactive) | – | – | –
CCOC(=O)c1c(-c2ccccc2)nc2ccccc2c1O | – | > 100 µM (inactive) | > 100 µM (inactive) | > 100 µM (inactive) | > 100 µM (inactive) | > 100 µM (inactive) | > 100 µM (inactive) | > 100 µM (inactive) | > 100 µM (inactive) | – | > 100 µM (inactive) | > 100 µM (inactive) | > 100 µM (inactive) | > 100 µM (inactive) | – | > 100 µM (inactive) | – | > 100 µM (inactive)
O=C(Nc1nc2ccccc2n1Cc1ccc(Cl)cc1)NC12CC3CC(CC(C3)C1)C2 | 24 µM (inactive) | – | 48 µM (inactive) | 48.9 µM (inactive) | 32.3 µM (inactive) | 16.4 µM (inactive) | 27.9 µM (inactive) | 41 µM (inactive) | > 100 µM (inactive) | 28.4 µM (inactive) | 20.5 µM (inactive) | 53.8 µM (inactive) | 21.1 µM (inactive) | – | 26.9 µM (inactive) | – | – | –
CO[C@@H]1C[C@H]2[C@@H]3CC[C@H]([C@@H](C)CO)[C@@]3(C)CC[C@@H]2[C@@]2(C)CC[C@H]3C[C@]312 | 24.4 µM (inactive) | 31 µM (inactive) | 39.8 µM (inactive) | 25 µM (inactive) | 22.8 µM (inactive) | 40.7 µM (inactive) | 31.6 µM (inactive) | 50.9 µM (inactive) | 31.1 µM (inactive) | 33 µM (inactive) | 42.1 µM (inactive) | 19 µM (inactive) | 36 µM (inactive) | > 100 µM (inactive) | – | 34.7 µM (inactive) | 27.5 µM (inactive) | 85.5 µM (inactive)
O=C(CP(c1ccccc1)c1ccccc1)c1cccc(C(=O)CP(c2ccccc2)c2ccccc2)c1 | 66.4 µM (inactive) | 89.7 µM (inactive) | 12.5 µM (inactive) | 12.6 µM (inactive) | 8.02 µM (inactive) | – | 15.7 µM (inactive) | > 100 µM (inactive) | 6.75 µM (inactive) | 56.8 µM (inactive) | 85.7 µM (inactive) | 26.1 µM (inactive) | 15.6 µM (inactive) | – | > 100 µM (inactive) | 70.3 µM (inactive) | 45.7 µM (inactive) | 55.8 µM (inactive)
